In PubChem BioAssay AID1845203 (Molecular Pharmacology Branch, DTP, NCI, 2023):
pIC50: −log10 of the molar value. “And” between values parts separate entries of the source, which are not always exact repeats. Equal entries are not always repeated.

System: G-401 tumor spheroids, viability % test/control
Experiment: Anticancer human tumor G-401 cell line growth inhibition;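 further: spheroids exposed to compound for 7 days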;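 on viability, T/C: 100% = DMSO vehicle-treated spheroids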
Settings: spheroids with HUVEC and MSC; for viability, T/C: stronger effect = lower value
In short: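 Complex spheroids of malignant cells with endothelial cells and mesenchymal stem cells; agents alone or combined, from near clinical Cmax (or 10 microM if unknown) down in half-log steps, 0.25% DMSO final.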

SMILES: [2H]c1nc(C)nc([2H])c1-c1cc(NC[C@@H](C)c2cccc3c(C(=O)NC)ccnc23)ncn1 + Cn1nnc2c(C(N)=O)ncn2c1=O
- pIC50 (curve of first compound, second compound 1 µM): < 5.00
- pIC50 (curve of first compound, second compound 3.16 µM): < 5.00
- pIC50 (curve of first compound, second compound 10 µM): < 5.00
- pIC50 (curve of first compound, second compound 31.6 µM): < 5.00
- pIC50 (curve of first compound, second compound 100 µM): < 5.00
- viability, T/C (second compound 1 µM, first compound 0.0316 µM): 101%
- viability, T/C (second compound 1 µM, first compound 0.1 µM): 106%
- viability, T/C (second compound 1 µM, first compound 0.316 µM): 110%
- viability, T/C (second compound 1 µM, first compound 1 µM): 102%
- viability, T/C (second compound 1 µM, first compound 3.16 µM): 107%
- viability, T/C (second compound 1 µM, first compound 10 µM): 103%
- viability, T/C (second compound 3.16 µM, first compound 0.0316 µM): 105%
- viability, T/C (second compound 3.16 µM, first compound 0.1 µM): 99.3%
- viability, T/C (second compound 3.16 µM, first compound 0.316 µM): 101%
- viability, T/C (second compound 3.16 µM, first compound 1 µM): 99.8%
- viability, T/C (second compound 3.16 µM, first compound 3.16 µM): 105%
- viability, T/C (second compound 3.16 µM, first compound 10 µM): 103%
- viability, T/C (second compound 10 µM, first compound 0.0316 µM): 93%
- viability, T/C (second compound 10 µM, first compound 0.1 µM): 99.6%
- viability, T/C (second compound 10 µM, first compound 0.316 µM): 101%
- viability, T/C (second compound 10 µM, first compound 1 µM): 96%
- viability, T/C (second compound 10 µM, first compound 3.16 µM): 108%
- viability, T/C (second compound 10 µM, first compound 10 µM): 94%
- viability, T/C (second compound 31.6 µM, first compound 0.0316 µM): 96.3%
- viability, T/C (second compound 31.6 µM, first compound 0.1 µM): 101%
- viability, T/C (second compound 31.6 µM, first compound 0.316 µM): 99.7%
- viability, T/C (second compound 31.6 µM, first compound 1 µM): 100%
- viability, T/C (second compound 31.6 µM, first compound 3.16 µM): 94.2%
- viability, T/C (second compound 31.6 µM, first compound 10 µM): 97.4%
- viability, T/C (second compound 100 µM, first compound 0.0316 µM): 95.9%
- viability, T/C (second compound 100 µM, first compound 0.1 µM): 94.8%
- viability, T/C (second compound 100 µM, first compound 0.316 µM): 105%
- viability, T/C (second compound 100 µM, first compound 1 µM): 92.8%
- viability, T/C (second compound 100 µM, first compound 3.16 µM): 89.6%
- viability, T/C (second compound 100 µM, first compound 10 µM): 86.5%

SMILES: Cc1cc(C)c(CNC(=O)c2cc(-c3ccc(CN4CCOCC4)cc3)cc3c2cnn3C2CCCC2)c(=O)[nH]1 + COc1cc2c(cc1O)CCNC21CSC2c3c(OC(C)=O)c(C)c4c(c3C(COC1=O)N1C(O)C3Cc5cc(C)c(OC)c(O)c5C(C21)N3C)OCO4
- pIC50 (curve of first compound, second compound 30 pM): < 5.00
- pIC50 (curve of first compound, second compound 94.9 pM): 5.15
- pIC50 (curve of first compound, second compound 0.0003 µM): > 7.50
- pIC50 (curve of first compound, second compound 0.000949 µM): > 7.50
- pIC50 (curve of first compound, second compound 0.003 µM): > 7.50
- viability, T/C (second compound 30 pM, first compound 0.0316 µM): 107%
- viability, T/C (second compound 30 pM, first compound 0.1 µM): 109%
- viability, T/C (second compound 30 pM, first compound 0.316 µM): 111%
- viability, T/C (second compound 30 pM, first compound 1 µM): 119%
- viability, T/C (second compound 30 pM, first compound 3.16 µM): 97.7%
- viability, T/C (second compound 30 pM, first compound 10 µM): 53.9%
- viability, T/C (second compound 94.9 pM, first compound 0.0316 µM): 93.3%
- viability, T/C (second compound 94.9 pM, first compound 0.1 µM): 110%
- viability, T/C (second compound 94.9 pM, first compound 0.316 µM): 106%
- viability, T/C (second compound 94.9 pM, first compound 1 µM): 107%
- viability, T/C (second compound 94.9 pM, first compound 3.16 µM): 81%
- viability, T/C (second compound 94.9 pM, first compound 10 µM): 36.6%
- viability, T/C (second compound 0.0003 µM, first compound 0.0316 µM): 43.3%
- viability, T/C (second compound 0.0003 µM, first compound 0.1 µM): 46.5%
- viability, T/C (second compound 0.0003 µM, first compound 0.316 µM): 37.9%
- viability, T/C (second compound 0.0003 µM, first compound 1 µM): 30%
- viability, T/C (second compound 0.0003 µM, first compound 3.16 µM): 25.2%
- viability, T/C (second compound 0.0003 µM, first compound 10 µM): 17.4%
- viability, T/C (second compound 0.000949 µM, first compound 0.0316 µM): 9.71%
- viability, T/C (second compound 0.000949 µM, first compound 0.1 µM): 9.04%
- viability, T/C (second compound 0.000949 µM, first compound 0.316 µM): 6.87%
- viability, T/C (second compound 0.000949 µM, first compound 1 µM): 6.92%
- viability, T/C (second compound 0.000949 µM, first compound 3.16 µM): 6.27%
- viability, T/C (second compound 0.000949 µM, first compound 10 µM): 4.18%
- viability, T/C (second compound 0.003 µM, first compound 0.0316 µM): 11.6%
- viability, T/C (second compound 0.003 µM, first compound 0.1 µM): 0.13%
- viability, T/C (second compound 0.003 µM, first compound 0.316 µM): 0.27%
- viability, T/C (second compound 0.003 µM, first compound 1 µM): 0.15%
- viability, T/C (second compound 0.003 µM, first compound 3.16 µM): 0.54%
- viability, T/C (second compound 0.003 µM, first compound 10 µM): 0.2%

SMILES: CC(C)n1c(=O)n(C)c2cnc3cc(F)c(-c4ccc(OCCCN5CCCCC5)nc4)cc3c21
- viability, T/C (compound 0.0316 µM): 87.5% and 105% and 107%
- viability, T/C (compound 0.1 µM): 92.2% and 105% and 104%
- viability, T/C (compound 0.316 µM): 47.9% and 100% and 108%
- viability, T/C (compound 1 µM): 90.7% and 101% and 103%
- viability, T/C (compound 3.16 µM): 95.9% and 98.2% and 101%
- viability, T/C (compound 10 µM): 67.4% (2×) and 86.7%
- pIC50 (curve of compound): < 5.00
